Source: ChEMBL document CHEMBL4303082, “A Large-scale Drug Repositioning Survey for SARS-CoV-2 Antivirals” (2020)
Square brackets hold non-standard residues; d marks the D form. Peptide text beside a SMILES is read from it. * marks the point of attachment. ξ: configuration not given here. ξF = NC(Cc1ccccc1)C(=O)O; Cbz = O=C(OCc1ccccc1)*; CHN2 = [N-]=[N+]=C*

Test system: SARS-CoV-2
Experiment: Determination of antiviral efficacy in high-content imaging assay in Vero E6 cells infected with SARS-CoV-2 (USA-WA1/2020 isolate) at MOI 0.75 after 24 hrs
Type: functional, organism-based, Chlorocebus sabaeus
Conditions: Severe acute respiratory syndrome coronavirus 2, Vero C1008, 24 h

Compound: CCNC/C=C\CNCCCCNCCCCNC/C=C\CNCC
- EC50: 250 nM

Compound: CCC(CC)COC(=O)[C@H](C)N[P@](=O)(OC[C@H]1O[C@@](C#N)(c2ccc3c(N)ncnn23)[C@H](O)[C@@H]1O)Oc1ccccc1
- EC50: 620 nM

Compound: Fc1ccc(-c2ccc(CN3CCN(c4cccc5ccoc45)CC3)[nH]2)cc1 [ELOPIPRAZOLE]
- EC50: 1100 nM

Compound: COc1cccc2c(N3CCc4ccccc4C3C)nc(Nc3ccc(F)cc3C)nc12 (stereo unspecified)
- EC50: 950 nM

Compound: CC(C)CC(NC(=O)OCc1ccccc1)C(=O)NC(C(=O)NCC(=O)C=[N+]=[N-])C(C)C (stereo not drawn) (Cbz-Leu-Val-Gly-CHN2; configuration not given here)
- EC50: 190 nM

Compound: CC(C)[C@H](NC(=O)OCc1ccccc1)C(=O)NC(C=O)Cc1ccccc1 (stereo partly drawn) (Cbz-Val-[ξF]-aldehyde)
- EC50: 220 nM

Compound: Cc1cccc(/C=N/Nc2cc(N3CCOCC3)nc(OCCc3ccccn3)n2)c1 [APILIMOD]
- EC50: 23 nM

Compound: C[C@@H]1CS/C(=N\NC(=O)C(=O)[C@@H](NC(=O)C2CCCCCC2)C2CCOCC2)N1C
- EC50: 500 nM

Compound: C1=C(c2ccc(CN3CCCCC3)cc2)N2CCN=C2c2ccccc21
- EC50: 750 nM

Compound: CC[C@H](NC(=O)[C@H](CS(=O)(=O)CC1CC1)N[C@@H](c1ccc(F)cc1)C(F)(F)F)C(=O)C(=O)NC1CC1
- EC50: 300 nM

Compound: COc1cc2c(cc1N1C[C@@H](C)N[C@@H](C)C1)N(C(=O)c1ccc(-c3ccc(-c4noc(C)n4)cc3C)cc1)CC2
- EC50: 1200 nM

Compound: CC(C)(C)NCc1ccc(Nc2ccnc3cc(Cl)ccc23)cc1O [GSK-369796]
- EC50: 1200 nM

Compound: COc1ccc2cc1Oc1ccc(cc1)C[C@H]1c3cc(c(OC)cc3CCN1C)Oc1c(OC)c(OC)cc3c1[C@H](C2)N(C)CC3 [FANCHININ]
- EC50: 1100 nM

Compound: CN(C)CCn1c(C(=O)N2CCN(c3ccccc3Cl)CC2)c(C(c2ccc(O)cc2)c2ccc(O)cc2)c2ccccc21
- EC50: 1200 nM

Compound: C[C@@H]1CN(c2ncc(C(O)CO)cc2Cl)CCN1c1nc2c(-c3cc(F)c(F)c(F)c3)cc(C(F)(F)F)cc2[nH]1 (stereo partly specified)
- EC50: 950 nM

Compound: CC(C)(O)c1ccc2c(c1)/C(=C/CCN1CC[C@](O)(c3ccc(Cl)cc3)C(C)(C)C1)c1cccnc1CO2
- EC50: 140 nM
